{
  "source": "paper PMC12030627",
  "about": "“Radioiodinated Bicyclic RGD Peptide Derivatives for Enhanced Tumor Accumulation” (Pharmaceuticals, 2025)",
  "experiment": "Biodistribution in U-87 MG tumor-bearing mice",
  "assay_type": "in vivo, BALB/c nu-nu mice",
  "settings": "male, BALB/c nu-nu, mouse, iv, 37 kBq, total radioactivity, U-87 MG-bearing mice, mean ± SD, n = 3; for tissue uptake at 1 h / tissue uptake dose at 1 h: 1 h after i.v. administration; for tissue uptake at 2 h / tissue uptake dose at 2 h: 2 h after i.v. administration; for tissue uptake at 6 h / tissue uptake dose at 6 h: 6 h after i.v. administration; for tissue uptake at 5 min / tissue uptake dose at 5 min: 5 min after i.v. administration; for tissue uptake at 0.5 h / tissue uptake dose at 0.5 h: 30 min after i.v. administration",
  "experimental": "Animal experiments were performed in compliance with institutional animal care regulations, with the study protocol approved by the Experimental Animal Committee of Osaka Medical and Pharmaceutical University (Approval Numbers: 21–76, 22–76, and 23–76). Four-week-old male BALB/c nu-nu mice (Japan SLC, Shizuoka, Japan) were housed under a 12 h light/12 h dark cycle with free access to food and water. Tumor-bearing mice were established by suspending U-87 MG cells (2 × 10^6 cells/mouse) in PBS(–) and subcutaneously injecting 100 μL of the suspension into the right hind leg. For co-implantation models, A549 cells (2 × 10^6 cells/mouse) were suspended in PBS(–) and inoculated (100 μL) into the left hind leg of the same mice already inoculated with U-87 MG cells. Mice with tumor size approximately 10 mm in diameter, 4–5 weeks after inoculation, were used for biodistribution studies. Animals in which either tumor was not viable were excluded from the experiment.\nU-87 MG-bearing mice (n = 42, 8–9 weeks old; 22–27 g) were randomly assigned into groups and administered [^125I]bcRGDpal or [^125I]bcRGDiba via intravenous injection (37 kBq in 100 μL of PBS containing 0.1% Tween 80 (PBS-T80)). At 5 min, 30 min, 1 h, 2 h, 6 h, 12 h, or 24 h post-injection, the mice were euthanized (n = 3 per time point). The heart, kidneys, liver, brain, pancreas, spleen, lung, small intestine, large intestine, muscle, skin, stomach, bone, and tumors were excised. Each organ’s weight and radioactivity were measured by a NaI well-type scintillation counter, and the % ID/g was calculated. To investigate the correlation between integrin expression and radioactivity accumulation, biodistribution at 2 h after administration of [^125I]bcRGDpal or [^125I]bcRGDiba was assessed in A549 and U-87 MG co-implantation mice (n = 5) using the same procedure. Additionally, co-implantation mice were injected with [^125I]bcRGDdimer (37 kBq/100 μL PBS-T80) and euthanized at 30 min, 2 h, and 4 h post-injection (n = 4 per time point), and % ID/g values were calculated as described above. The minimum sample size needed for the biodistribution study in U-87 MG-bearing mice was calculated using G Power software version 3.1.9.7. The calculation was based on a two-tailed test, with an effect size of 3.9, a significance level (α) of 0.05, and a statistical power (1 − β) of 0.8. […] The minimum required sample size for the biodistribution study in A549 and U-87 MG co-implantation mice was also calculated to be four animals per group (effect size = 2.5, α = 0.05, 1 − β = 0.8). To guarantee objective results, the experiment was carried out in a blinded manner. Specifically, drug administration and radioactivity measurements were conducted by different investigators to eliminate potential bias.",
  "key": {"[1]": {"settings": "liver, read-out: Radioactivity in liver"}, "[2]": {"settings": "lung, read-out: Radioactivity in lung"}, "[3]": {"settings": "muscle, read-out: Radioactivity in muscle"}, "[4]": {"settings": "pancreas, read-out: Radioactivity in pancreas"}, "[5]": {"settings": "small intestine, read-out: Radioactivity in small intestine"}, "[6]": {"settings": "spleen, read-out: Radioactivity in spleen"}, "[7]": {"settings": "stomach, read-out: Radioactivity in stomach"}, "[8]": {"settings": "thyroid, read-out: Radioactivity in thyroid"}},
  "note": "Read-outs that look alike come from different tables or passages of the source. Starred links: 1 amine or outer side, 2 acyl side, 3 side chain; linkers in the order of their positions; H or OH if unused. Positions of bridges follow the written chain, without caps; N, C: chain ends. Non-standard residues stand in square brackets, D forms with d. Residues, ends and D or L forms follow the SMILES beside them. *: point of attachment. Butanoyl(4-(4-I-phenyl)) = O=C(CCCc1ccc(I)cc1)*; TBMB = c1c(C[*:1])cc(C[*:3])cc1C[*:2]; Benzoyl(3-I) = O=C(c1cccc(I)c1)*; 4Abz = Nc1ccc(C(=O)O)cc1",
  "data": [
    {"smiles": "N=C(N)NCCC[C@@H]1NC(=O)[C@H]2CSCc3cc(cc(c3)CSC[C@H](C(N)=O)NC(=O)[C@H](CC(=O)O)NC(=O)CNC1=O)CSC[C@H](NC(=O)CNC(=O)[C@H](CO)NC(=O)c1ccc(NC(=O)CNC(=O)[C@H](CO)NC(=O)[C@@H]3CCCN3C(=O)[C@@H]3CCCN3C(=O)[C@@H]3CCCN3C(=O)[C@H](CCCCNC(=O)c3cccc(I)c3)NC(=O)CCCc3ccc(I)cc3)cc1)C(=O)N[C@@H](Cc1c[nH]cn1)C(=O)N1CCC[C@H]1C(=O)N[C@@H](CCC(N)=O)C(=O)N2", "note": "[[^125I]bcRGDiba] ({Butanoyl(4-(4-I-phenyl))}-K(Benzoyl(3-I))PPPSG[4Abz]SGCHPQ[dC]RGD[dC]-NH2; linker 10-14-18 via TBMB)", "values": [
      {"measurement": "tissue uptake at 1 h", "setting": "[1]", "result": "5.7 ± 0.7", "unit": "%ID/g"},
      {"measurement": "tissue uptake at 2 h", "setting": "[1]", "result": "5.1 ± 0.4", "unit": "%ID/g"},
      {"measurement": "tissue uptake at 6 h", "setting": "[1]", "result": "3.4 ± 0.4", "unit": "%ID/g"},
      {"measurement": "tissue uptake at 12 h", "setting": "liver, 12 h after i.v. administration, read-out: Radioactivity in liver", "result": "1.4 ± 0.2", "unit": "%ID/g"},
      {"measurement": "tissue uptake at 24 h", "setting": "liver, 24 h after i.v. administration, read-out: Radioactivity in liver", "result": 0.6, "unit": "%ID/g"},
      {"measurement": "tissue uptake at 5 min", "setting": "[2]", "result": "10.7 ± 1.9", "unit": "%ID/g"},
      {"measurement": "tissue uptake at 0.5 h", "setting": "[2]", "result": "9.4 ± 0.3", "unit": "%ID/g"},
      {"measurement": "tissue uptake at 1 h", "setting": "[2]", "result": "8.2 ± 0.6", "unit": "%ID/g"},
      {"measurement": "tissue uptake at 2 h", "setting": "[2]", "result": "7.5 ± 0.4", "unit": "%ID/g"},
      {"measurement": "tissue uptake at 6 h", "setting": "[2]", "result": "5.3 ± 0.5", "unit": "%ID/g"},
      {"measurement": "tissue uptake at 12 h", "setting": "lung, 12 h after i.v. administration, read-out: Radioactivity in lung", "result": "2.6 ± 0.3", "unit": "%ID/g"},
      {"measurement": "tissue uptake at 24 h", "setting": "lung, 24 h after i.v. administration, read-out: Radioactivity in lung", "result": "1.2 ± 0.1", "unit": "%ID/g"},
      {"measurement": "tissue uptake at 5 min", "setting": "[3]", "result": "1.4 ± 0.4", "unit": "%ID/g"},
      {"measurement": "tissue uptake at 0.5 h", "setting": "[3]", "result": "1.5 ± 0.2", "unit": "%ID/g"},
      {"measurement": "tissue uptake at 1 h", "setting": "[3]", "result": "1.5 ± 0.1", "unit": "%ID/g"},
      {"measurement": "tissue uptake at 2 h", "setting": "[3]", "result": "1.5 ± 0.2", "unit": "%ID/g"},
      {"measurement": "tissue uptake at 6 h", "setting": "[3]", "result": "1.2 ± 0.3", "unit": "%ID/g"},
      {"measurement": "tissue uptake at 12 h", "setting": "muscle, 12 h after i.v. administration, read-out: Radioactivity in muscle", "result": "0.5 ± 0.1", "unit": "%ID/g"},
      {"measurement": "tissue uptake at 24 h", "setting": "muscle, 24 h after i.v. administration, read-out: Radioactivity in muscle", "result": 0.3, "unit": "%ID/g"},
      {"measurement": "tissue uptake at 5 min", "setting": "[4]", "result": "2.3 ± 0.4", "unit": "%ID/g"},
      {"measurement": "tissue uptake at 0.5 h", "setting": "[4]", "result": "2 ± 0.2", "unit": "%ID/g"},
      {"measurement": "tissue uptake at 1 h", "setting": "[4]", "result": "1.5 ± 0.2", "unit": "%ID/g"},
      {"measurement": "tissue uptake at 2 h", "setting": "[4]", "result": "1.4 ± 0.2", "unit": "%ID/g"},
      {"measurement": "tissue uptake at 6 h", "setting": "[4]", "result": "1 ± 0.2", "unit": "%ID/g"},
      {"measurement": "tissue uptake at 12 h", "setting": "pancreas, 12 h after i.v. administration, read-out: Radioactivity in pancreas", "result": "0.5 ± 0.1", "unit": "%ID/g"},
      {"measurement": "tissue uptake at 24 h", "setting": "pancreas, 24 h after i.v. administration, read-out: Radioactivity in pancreas", "result": 0.2, "unit": "%ID/g"},
      {"measurement": "tissue uptake at 5 min", "setting": "[5]", "result": "2.3 ± 0.4", "unit": "%ID/g"},
      {"measurement": "tissue uptake at 0.5 h", "setting": "[5]", "result": "3 ± 0.1", "unit": "%ID/g"},
      {"measurement": "tissue uptake at 1 h", "setting": "[5]", "result": "4.8 ± 0.6", "unit": "%ID/g"},
      {"measurement": "tissue uptake at 2 h", "setting": "[5]", "result": "4.9 ± 0.3", "unit": "%ID/g"},
      {"measurement": "tissue uptake at 6 h", "setting": "[5]", "result": "5.6 ± 1.1", "unit": "%ID/g"},
      {"measurement": "tissue uptake at 12 h", "setting": "small intestine, 12 h after i.v. administration, read-out: Radioactivity in small intestine", "result": "2.2 ± 0.5", "unit": "%ID/g"},
      {"measurement": "tissue uptake at 24 h", "setting": "small intestine, 24 h after i.v. administration, read-out: Radioactivity in small intestine", "result": "0.9 ± 0.1", "unit": "%ID/g"},
      {"measurement": "tissue uptake at 5 min", "setting": "[6]", "result": "2.9 ± 0.5", "unit": "%ID/g"},
      {"measurement": "tissue uptake at 0.5 h", "setting": "[6]", "result": "3 ± 0.2", "unit": "%ID/g"},
      {"measurement": "tissue uptake at 1 h", "setting": "[6]", "result": "2.5 ± 0.2", "unit": "%ID/g"},
      {"measurement": "tissue uptake at 2 h", "setting": "[6]", "result": "2.3 ± 0.3", "unit": "%ID/g"},
      {"measurement": "tissue uptake at 6 h", "setting": "[6]", "result": "1.7 ± 0.5", "unit": "%ID/g"},
      {"measurement": "tissue uptake at 12 h", "setting": "spleen, 12 h after i.v. administration, read-out: Radioactivity in spleen", "result": "0.9 ± 0.1", "unit": "%ID/g"},
      {"measurement": "tissue uptake at 24 h", "setting": "spleen, 24 h after i.v. administration, read-out: Radioactivity in spleen", "result": 0.4, "unit": "%ID/g"},
      {"measurement": "tissue uptake dose at 5 min", "setting": "[7]", "result": "0.4 ± 0.1", "unit": "%ID"},
      {"measurement": "tissue uptake dose at 0.5 h", "setting": "[7]", "result": "0.8 ± 0.2", "unit": "%ID"},
      {"measurement": "tissue uptake dose at 1 h", "setting": "[7]", "result": "0.7 ± 0.1", "unit": "%ID"},
      {"measurement": "tissue uptake dose at 2 h", "setting": "[7]", "result": "0.7 ± 0.3", "unit": "%ID"},
      {"measurement": "tissue uptake dose at 6 h", "setting": "[7]", "result": "0.8 ± 0.2", "unit": "%ID"},
      {"measurement": "tissue uptake dose at 12 h", "setting": "stomach, 12 h after i.v. administration", "result": "0.2 ± 0.1", "unit": "%ID"},
      {"measurement": "tissue uptake dose at 24 h", "setting": "stomach, 24 h after i.v. administration", "result": 0.2, "unit": "%ID"},
      {"measurement": "tissue uptake dose at 5 min", "setting": "[8]", "result": 0.1, "unit": "%ID"},
      {"measurement": "tissue uptake dose at 0.5 h", "setting": "[8]", "result": "0.1 ± 0.1", "unit": "%ID"},
      {"measurement": "tissue uptake dose at 1 h", "setting": "[8]", "result": "0.1 ± 0.1", "unit": "%ID"},
      {"measurement": "tissue uptake dose at 2 h", "setting": "[8]", "result": "0.1 ± 0.1", "unit": "%ID"},
      {"measurement": "tissue uptake dose at 6 h", "setting": "[8]", "result": 0.1, "unit": "%ID"}
    ]}
  ]
}
